Tests used:
Assay type in all cases: in vivo
Veronica persica = experiment: Test Example 5: herbicidal effect by foliage application, plastic box (symbol R); conditions: 320 g/ha, 3 weeks after application
Method in brief: (§1)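 Post-emergence spray; diluvial soil (sterilized), ~1.5 cm seed cover; greenhouse 25–30° C; 14-day-old plants; water-diluted emulsion at predetermined dose; visual score at 3 wk post-treatment.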

Scirpus juncoides [1] = experiment: Test Example 1: herbicidal activity, application before weed generation in submerged conditions (symbol B); conditions: application herbicide amount 320 g/ha
Method in brief: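 Pre-emergence, paddy conditions: emulsifiable formulation diluted in water, dosed onto floodwater (4 cm depth) on sowing day. Alluvial soil; weeds sown mixed; rice transplanted at 2.5-leaf stage. Greenhouse 25–30 °C, 3 wk. Score 0–5 (5 = ≥90% kill, 0 = ≤5%).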

wheat = experiment: Test Example 5: effect on crop by foliage application, plastic box (symbol e); conditions: 320 g/ha, 3 weeks after application
Method in brief: (§2)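 A greenhouse held between 25° C. and 30° C. was used to grow plants sown spot-wise, beneath ~1.5 cm of soil, in boxes of sterilized diluvial soil.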

rice plant = experiment: Test Example 5: effect on crop by foliage application, plastic box (symbol b); conditions: 320 g/ha, 3 weeks after application
Method in brief: as §2

corn = experiment: Test Example 4: effect on crop by soil treatment (symbol c); conditions: application herbicide amount 320 g/ha
Method in brief: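 Sterilized diluvial soil, spot sowing, ~1.5 cm soil cover; greenhouse 25–30° C.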

Cyperus difformis = experiment: Test Example 3: herbicidal effect by foliage application, Wagner pot (symbol E); conditions: application herbicide amount 320 g/ha
Method in brief: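 Seeds sown in alluvial soil kept under 0.1–0.5 cm water, greenhouse 25–30 °C; 14 d growth. Leaves treated by small sprayer with water-diluted emulsion at a predetermined rate. Effect graded by set scale, 3 weeks.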

[2] = system: Echinochloa oryzacola Vasing.; experiment: Test Example 2: herbicidal activity, application during weed generation in submerged conditions (symbol A); conditions: Table 23; application herbicide amount 320 g/ha; grade 0-5 by criteria of Test Example 1
Method in brief: (§3)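 Each pot contained alluvial soil under 4 cm of water with seeds of all three weeds sown together. Following growth at 25° C. to 30° C. to the one- to two-leaf stage, the floodwater received diluted emulsion at a predetermined amount; visual assessment followed at 3 weeks.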

soybean = experiment: Test Example 5: effect on crop by foliage application, plastic box (symbol d); conditions: 320 g/ha, 3 weeks after application
Method in brief: as §2

Amaranthus retroflexus = experiment: Test Example 5: herbicidal effect by foliage application, plastic box (symbol N); conditions: 320 g/ha, 3 weeks after application
Method in brief: as §1

Scirpus juncoides [3] = experiment: Test Example 2: herbicidal activity, application during weed generation in submerged conditions (symbol B); conditions: Table 23; application herbicide amount 320 g/ha; grade 0-5 by criteria of Test Example 1
Method in brief: as §3

Stellaria media = experiment: Test Example 4: herbicidal effect by soil treatment (symbol P); conditions: application herbicide amount 320 g/ha
Method in brief: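 Seeds were sown in sterilized diluvial soil, covered with about 1.5 cm of soil, and the soil surface was sprayed with a water-diluted emulsion of the compound at a predetermined rate. Plants grew in a greenhouse at 25° C. to 30° C.; effects were scored visually 3 weeks after application.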

Galium spurium = experiment: Test Example 5: herbicidal effect by foliage application, plastic box (symbol Q); conditions: 320 g/ha, 3 weeks after application
Method in brief: as §1

Row | SMILES | R: Veronica persica, herbicidal effect (criteria of Test Example 1) (Veronica persica) | Herbicidal effect grade, B: Scirpus juncoides (Scirpus juncoides [1]) | e: wheat, effect on crop (criteria of Test Example 1) (wheat) | b: directly sowed rice plant, effect on crop (criteria of Test Example 1) (rice plant) | Effect on crop grade, c: corn (corn) | herbicidal effect on E, grade 0-5 (Cyperus difformis) | Herbicidal effect grade, A: Echinochloa oryzacola Vasing. [2] | d: soybean, effect on crop (criteria of Test Example 1) (soybean) | N: Amaranthus retroflexus, herbicidal effect (criteria of Test Example 1) (Amaranthus retroflexus) | Herbicidal effect grade, B: Scirpus juncoides (Scirpus juncoides [3]) | Herbicidal effect grade, P: Stellaria media (Stellaria media) | Q: Galium spurium, herbicidal effect (criteria of Test Example 1) (Galium spurium) | c: corn, effect on crop grade (corn) | P: Stellaria media, herbicidal effect grade (Stellaria media)
1 | CC(=O)CC1CC(O)=C(c2c(C)cc(-n3cccn3)cc2C)C1=O (stereo not drawn) [7-024] | 0 (Herbicidal ratio of 5% or lower (almost no effect)) | 1 (Herbicidal ratio of 5% or higher and lower than 20%) | 0 (Herbicidal ratio of 5% or lower (almost no effect)) | 3 (Herbicidal ratio of 40% or higher and lower than 70%) | 0 (Herbicidal ratio of 5% or lower (almost no effect)) | 2 (Herbicidal ratio of 20% or higher and lower than 40%) | 1 (Herbicidal ratio of 5% or higher and lower than 20%) | 0 (Herbicidal ratio of 5% or lower (almost no effect)) | 0 (Herbicidal ratio of 5% or lower (almost no effect)) | 0 (Herbicidal ratio of 5% or lower (almost no effect)) | 0 (Herbicidal ratio of 5% or lower (almost no effect)) | 0 (Herbicidal ratio of 5% or lower (almost no effect)) |  | 
2 | CC(=O)CC1CC(O)=C(c2c(C)cc(OCc3ccccc3)cc2C)C1=O (stereo not drawn) [7-018] | 0 (Herbicidal ratio of 5% or lower (almost no effect)) | 0 (Herbicidal ratio of 5% or lower (almost no effect)) | 0 (Herbicidal ratio of 5% or lower (almost no effect)) | 2 (Herbicidal ratio of 20% or higher and lower than 40%) | 0 (Herbicidal ratio of 5% or lower (almost no effect)) | 3 (Herbicidal ratio of 40% or higher and lower than 70%) | 1 (Herbicidal ratio of 5% or higher and lower than 20%) | 0 (Herbicidal ratio of 5% or lower (almost no effect)) | 0 (Herbicidal ratio of 5% or lower (almost no effect)) | 0 (Herbicidal ratio of 5% or lower (almost no effect)) | 0 (Herbicidal ratio of 5% or lower (almost no effect)) | 0 (Herbicidal ratio of 5% or lower (almost no effect)) |  | 
3 | CON=C(C)CC1CC(O)=C(c2c(C)cc(-c3ccc(Cl)cc3)cc2OC)C1=O (stereo not drawn) [6-077, 2-(4′-chloro-3-methoxy-5-methyl-[1,1′-biphenyl]-4-yl)-3-hydroxy-5-{2-(methoxyimino)propyl}cyclopent-2-enone] | 4 (Herbicidal ratio of 70% or higher and lower than 90%) | 3 (Herbicidal ratio of 40% or higher and lower than 70%) | 5 (Herbicidal ratio of 90% or more (almost completely withered)) | 5 (Herbicidal ratio of 90% or more (almost completely withered)) |  | 5 (Herbicidal ratio of 90% or more (almost completely withered)) | 5 (Herbicidal ratio of 90% or more (almost completely withered)) | 2 (Herbicidal ratio of 20% or higher and lower than 40%) | 1 (Herbicidal ratio of 5% or higher and lower than 20%) | 4 (Herbicidal ratio of 70% or higher and lower than 90%) |  | 4 (Herbicidal ratio of 70% or higher and lower than 90%) | 0 (Herbicidal ratio of 5% or lower (almost no effect)) | 3 (Herbicidal ratio of 40% or higher and lower than 70%)
4 | CON=C(C)CC1CC(O)=C(c2c(C)cc(-c3ccccc3)cc2OC)C1=O (stereo not drawn) [6-099] | 5 (Herbicidal ratio of 90% or more (almost completely withered)) | 5 (Herbicidal ratio of 90% or more (almost completely withered)) | 5 (Herbicidal ratio of 90% or more (almost completely withered)) | 5 (Herbicidal ratio of 90% or more (almost completely withered)) | 5 (Herbicidal ratio of 90% or more (almost completely withered)) | 5 (Herbicidal ratio of 90% or more (almost completely withered)) | 5 (Herbicidal ratio of 90% or more (almost completely withered)) | 4 (Herbicidal ratio of 70% or higher and lower than 90%) | 4 (Herbicidal ratio of 70% or higher and lower than 90%) | 5 (Herbicidal ratio of 90% or more (almost completely withered)) | 4 (Herbicidal ratio of 70% or higher and lower than 90%) | 5 (Herbicidal ratio of 90% or more (almost completely withered)) |  | 
5 | CC(=O)CC1CC(O)=C(c2c(C)cc(Br)cc2C)C1=O (stereo not drawn) [7-002] | 0 (Herbicidal ratio of 5% or lower (almost no effect)) | 0 (Herbicidal ratio of 5% or lower (almost no effect)) | 0 (Herbicidal ratio of 5% or lower (almost no effect)) | 5 (Herbicidal ratio of 90% or more (almost completely withered)) | 0 (Herbicidal ratio of 5% or lower (almost no effect)) | 3 (Herbicidal ratio of 40% or higher and lower than 70%) | 0 (Herbicidal ratio of 5% or lower (almost no effect)) | 0 (Herbicidal ratio of 5% or lower (almost no effect)) | 0 (Herbicidal ratio of 5% or lower (almost no effect)) | 0 (Herbicidal ratio of 5% or lower (almost no effect)) | 0 (Herbicidal ratio of 5% or lower (almost no effect)) | 0 (Herbicidal ratio of 5% or lower (almost no effect)) |  | 
6 | CON=C(C)CC1CC(OS(=O)(=O)N(C)C)=C(c2c(C)cc(C)cc2OC)C1=O (stereo not drawn) [6-095] | 3 (Herbicidal ratio of 40% or higher and lower than 70%) | 4 (Herbicidal ratio of 70% or higher and lower than 90%) | 4 (Herbicidal ratio of 70% or higher and lower than 90%) | 5 (Herbicidal ratio of 90% or more (almost completely withered)) | 2 (Herbicidal ratio of 20% or higher and lower than 40%) | 5 (Herbicidal ratio of 90% or more (almost completely withered)) | 5 (Herbicidal ratio of 90% or more (almost completely withered)) | 3 (Herbicidal ratio of 40% or higher and lower than 70%) | 0 (Herbicidal ratio of 5% or lower (almost no effect)) | 3 (Herbicidal ratio of 40% or higher and lower than 70%) | 0 (Herbicidal ratio of 5% or lower (almost no effect)) | 0 (Herbicidal ratio of 5% or lower (almost no effect)) |  | 
